Laboratory results reported in paper PMC12650729 (Biology, 2025).
Like-named read-outs stand apart in the source and are kept apart here.

What was measured:
[1] = tested on: CV-A9; experiment: EC50 evaluation against CV-A9 in RD cells (viral nucleic acid load); format: cell-based; details: read-out: EC50 against CV-A9
[2] = tested on: CV-B3; experiment: EC50 evaluation against CV-B3 in Vero E6 cells (viral nucleic acid load); format: cell-based
[3] = tested on: EV-A71; experiment: microbe, parasite or virus in culture; format: cell-based; details: Enterovirus A, EVA71, RD, read-out: EC50 against EV-A71
[4] = tested on: PV1; experiment: microbe, parasite or virus in culture; format: cell-based, poliovirus 1; details: Enterovirus C, RD, read-out: EC50 against PV1
[5] = tested on: Echo-11; experiment: EC50 evaluation against Echo-11 in RD cells; format: cell-based
[6] = tested on: CV-A9; experiment: EC50 evaluation against CV-A9 in Huh-7 cells; format: cell-based
[7] = CC50 evaluation, CellTiter-Blue cell viability assay, RD cells; format: cell-based; details: human, RD cells (human rhabdomyosarcoma), parallel to CV-A9 assay
[8] = tested on: CV-A9; experiment: Time-of-addition assay, CV-A9; format: cell-based; details: 25 μM, RD cells, MOI 0.001
[9] = tested on: CV-A9; experiment: organism not typed; format: cell-based; details: for inhibition at 25 µM: RD
[10] = in vitro; details: African green monkey
[11] = in vitro; details: human
[12] = tested on: CV-A9; experiment: Primary screening for antiviral compounds by cytopathic effects (CPEs); details: 10 μM, RD cells, 36 h.p.i.
[13] = tested on: CV-A9; experiment: Drug combination, Zero Interaction Potency (ZIP) model, SynergyFinder, CV-A9-infected RD cells; details: CV-A9 MOI 0.001, RD cells; -10 to 10 additive
[14] = tested on: CV-A9; experiment: Post-entry inhibitory effect (viral RNA kinetics), CV-A9 in RD cells; format: cell-based; details: 25 μM added at 2 h post-infection, cells and supernatants
[15] = tested on: CV-A9 2A^pro; experiment: FRET-based protease assay, CV-A9 2A protease; format: biochemical; details: pre-incubated 30 min
[16] = tested on: MCP-1; experiment: Cytokine expression analysis, MCP-1 mRNA in CV-A9-infected RD cells; format: cell-based, Human; details: MOI 0.001, 24 h
Protocol: (§1) Figure S13. Effect of bioactive compounds on the expression of MCP-1 and COX-
(§2) 2 induced by CV-A9 infection.
(§3) MCP-1 (a) and COX-2 (b) mRNA levels in RD cells were quantified by RT-qPCR at
(§4) 24 h.p.i following CV-A9 infection (MOI=0.001) and treatment with 50 μM velutin,
(§5) isorhamnetin, or (−)-epicatechin gallate. Representative curves of at least two

[17] = tested on: COX-2; experiment: Cytokine expression analysis, COX-2 mRNA in CV-A9-infected RD cells; format: cell-based, Human; details: MOI 0.001, 24 h
Protocol: as §1, §2, §3, §4, §5

[18] = tested on: IRES; details: 293T cells, Fluc/Rluc
[19] = target: CV-A9 3D^pol (Coxsackievirus A9, UniProt P21404); experiment: In vitro RNA primer extension assay using 3D^pol
Sequence of CV-A9 3D^pol (P21404 1740-2201): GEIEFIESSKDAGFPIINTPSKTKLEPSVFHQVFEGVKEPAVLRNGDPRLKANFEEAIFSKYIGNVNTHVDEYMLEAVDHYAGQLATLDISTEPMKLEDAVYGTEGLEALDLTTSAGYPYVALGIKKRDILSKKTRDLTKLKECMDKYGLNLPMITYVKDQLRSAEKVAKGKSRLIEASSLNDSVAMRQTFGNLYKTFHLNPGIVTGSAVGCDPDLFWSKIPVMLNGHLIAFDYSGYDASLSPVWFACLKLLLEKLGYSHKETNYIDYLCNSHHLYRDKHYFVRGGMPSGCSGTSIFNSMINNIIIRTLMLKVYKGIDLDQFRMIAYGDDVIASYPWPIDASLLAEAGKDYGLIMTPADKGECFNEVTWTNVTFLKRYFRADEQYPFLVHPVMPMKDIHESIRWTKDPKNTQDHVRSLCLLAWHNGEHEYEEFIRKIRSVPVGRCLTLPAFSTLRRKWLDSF

[20] = tested on: IL-6; experiment: Cytokine expression analysis, IL-6 mRNA in CV-A9-infected RD cells; details: Homo sapiens, 24 h, read-out: inhibition of CV-A9-induced IL-6 upregulation
[21] = tested on: TNF-α; experiment: Cytokine expression analysis, TNF-α mRNA in CV-A9-infected RD cells
[22] = tested on: EV-A71; experiment: Antiviral evaluation in vivo, EV-A71-infected BALB/c young mice (tissue viral load, H&E); details: same dosing
[23] = target: CV-B3 3C^pro (Coxsackievirus B3, UniProt P03313); experiment: FRET-based protease assay, CV-B3 3C protease; format: biochemical; details: 1 mM
Sequence of CV-B3 3C^pro (P03313 1541-1723): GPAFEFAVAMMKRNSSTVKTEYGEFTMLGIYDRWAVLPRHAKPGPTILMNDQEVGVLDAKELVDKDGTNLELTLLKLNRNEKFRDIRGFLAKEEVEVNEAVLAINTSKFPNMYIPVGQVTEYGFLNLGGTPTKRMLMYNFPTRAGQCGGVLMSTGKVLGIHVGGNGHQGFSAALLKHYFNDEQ

[24] = tested on: Vero E6 cells
[25] = tested on: Huh-7 cells
[26] = Vero C1008, read-out: EC50 against CV-B3
[27] = Huh-7, read-out: EC50 against CV-A9
[28] = read-out: inhibition of CV-A9 attachment

SMILES	EC50 ([1]; RD)	EC50 [2, 26]	EC50 [3]	EC50 [4]	EC50 ([5]; read-out: EC50 against Echo-11)	EC50 [6, 27]	CC50 [7]	phase-specific activity, time-of-addition, CV-A9 [8]	inhibition at 25 µM [9, 28]	CC50 [10]	CC50 [11]	primary screening result by CV-A9-induced CPEs [12]	ZIP score of the combination with velutin [13]	inhibitory activity against 2A^pro [15]	inhibitory activity against IRES elements [18]	inhibitory activity against 3D^pol [19]	inhibition at 50 µM [20]	intestinal histopathology (H&E) [22]	other results
Oc1cccc(O)c1O [pyrogallol]	10.5 µM	1.78 µM	> 100 µM	> 100 µM	> 100 µM	8.83 µM	> 100 µM	exclusively targeted viral attachment	32.4%	> 100 µM	> 100 µM	identified as CV-A9 inhibitors	1.684						inhibition of CV-A9 internalization ([9]; 25 µM): without affecting cellular internalization
COc1cc(O)c2c(=O)cc(-c3ccc(O)c(OC)c3)oc2c1 [velutin]	0.76 µM	2.26 µM	2.18 µM	0.96 µM	0.69 µM	3.7 µM	> 100 µM	pan-stage suppression spanning both entry and post-entry phases	40.5%	> 100 µM	> 100 µM	identified as CV-A9 inhibitors		no inhibitory activity	no inhibitory activity	no inhibitory activity	70 to 80%	no hydropic degeneration of the epithelial cells	inhibition at 25 µM ([9]; read-out: inhibition of CV-A9 internalization): 38.2%; post-entry viral load kinetics, CV-A9 [14]: significantly suppressed intra- and extracellular viral proliferation; inhibition at 50 µM ([16]; Homo sapiens, read-out: inhibition of CV-A9-induced MCP-1 upregulation): 20%; inhibition at 50 µM ([17]; Homo sapiens, read-out: inhibition of CV-A9-induced COX-2 upregulation): 70 to 80%; inhibition at 50 µM ([21]; Homo sapiens, RD, 24 h, read-out: inhibition of CV-A9-induced TNF-α upregulation): 70 to 80%
Nc1ccc(C(=O)Nc2cccc(-c3nc(N4CCOCC4)c4oc5ncccc5c4n3)c2)cn1 [YM-201636, reference compound]																		partial shedding of intestinal epithelial cells	
COc1cc(-c2oc3cc(O)cc(O)c3c(=O)c2O)ccc1O [isorhamnetin]			14.6 µM	13.9 µM			> 100 µM	pan-stage suppression spanning both entry and post-entry phases		> 100 µM	> 100 µM	identified as CV-A9 inhibitors	3.126	no inhibitory activity	no inhibitory activity	no inhibitory activity	~60%		EC50 ([1]; RD cells, MOI 0.001): 2.23 µM; EC50 ([2]; Vero C1008, MOI 0.001, read-out: EC50 against CV-B3): 1.62 µM; EC50 ([5]; MOI 0.005, read-out: EC50 against Echo-11): 20.6 µM; EC50 ([6]; Huh-7 cells, read-out: EC50 against CV-A9): 9.07 µM; inhibition at 1000 µM [23]: ~50%; inhibition of CV-A9-induced MCP-1 upregulation ([16]; 50 μM): without significant effects; inhibition of CV-A9-induced COX-2 upregulation ([17]; 50 μM): without significant effects; inhibition of CV-A9-induced TNF-α upregulation ([21]; 50 μM, RD cells, MOI 0.001, 24 h): without significant effects
O=C(O[C@@H]1Cc2c(O)cc(O)cc2O[C@@H]1c1ccc(O)c(O)c1)c1cc(O)c(O)c(O)c1 [(−)-epicatechin gallate]								pan-stage suppression spanning both entry and post-entry phases				identified as CV-A9 inhibitors	1.443	no inhibitory activity	no inhibitory activity	no inhibitory activity			inhibition of CV-B3 3C^pro protease activity [23]: about 50%; CC50 [24]: > 100 µM; CC50 [25]: > 100 µM
